Series [1] can be described thus: Stability of multibiotic agents in Simulated Gastric Fluid (SGF). Conditions: simulated gastric fluid pH 1.6 with pepsin, 37° C., 1 μM. The format is in vitro ADME. The protocol: Assay 3. Stability of multibiotic agents in Simulated Gastric Fluid (SGF). This assay can be used to assess the stability of a multibiotic agent in a stomach.
Medium was prepared by dissolving 2 g of sodium chloride in 0.6 L in ultrapure water (MilliQ®, Millipore Sigma, Darmstadt, Germany). The pH was adjusted to 1.6 with 1 N hydrochloric acid, and the volume was then adjusted to 1 L with purified water.
60 mg FaSSIF powder (Biorelevant™, London, UK) were dissolved in 500 mL buffer (above). Pepsin was added (0.1 mg/mL) (Millipore Sigma, Darmstadt, Germany), and the solution was stirred. The resulting SGF media were used fresh for each experiment.
Test compounds were dissolved in DMSO stock to 1 mM. An aliquot of the DMSO stock solution was removed and diluted in the SGF Media in 15 mL falcon tubes to generate a total compound concentration of 1 μM. A 1 mL aliquot was immediately removed and diluted once with 1 volume of acetonitrile for T0 timepoint. The mixture was sealed and mixed at 37° C. in an incubator. Aliquots (1 mL) were removed at regular intervals and immediately quenched by the addition of 1 volume of acetonitrile. The resulting samples were analyzed by LC/MS to determine degradation rates in SGF.

Series [2] is described as follows: Stability of multibiotic agents in Simulated Intestinal Fluid (SIF). The format is in vitro ADME. The following applies: simulated intestinal fluid pH 6.7 with pancreatin, 37° C., 1 μM. The protocol: Assay 2. Stability of multibiotic agents in Simulated Intestinal Fluid (SIF). This assay can be used to assess the stability of a multibiotic agent in a small intestine. Phosphate buffer was prepared by dissolving 0.42 g of sodium hydroxide pellets and 3.95 g of monobasic sodium phosphate monohydrate and 6.19 g of sodium chloride in ultrapure water (MilliQ®, Millipore Sigma, Darmstadt, Germany). The pH was adjusted to 6.7 using aq. HCl and aq. NaOH, as necessary, and the solution was diluted with ultrapure water to produce 1 L of the pH 6.7 buffer. 112 mg FaSSIF powder (Biorelevant™, London, UK) was dissolved in 50 mL of the pH 6.7 buffer. 2 to 3 mL of the resulting solution were then added to 500 mg pancreatin (Millipore Sigma, Darmstadt, Germany). The resulting mixture was agitated by finger tapping the vessel containing the mixture until milky suspension formed. At this time, the remainder of the 50 mL FaSSiF/pH 6.7 buffer solution was added. The resulting suspension was flipped upside down 10 times to produce SIF, which was used fresh. Test compounds are dissolved in DMSO stock to 1 mM. An aliquot of the DMSO stock solution is removed and diluted in the SIF media in 15 mL falcon tubes to produce a mixture with a tested compound concentration of 1 μM. A 1 mL aliquot is immediately removed and diluted once with 1 volume of acetonitrile for T0 timepoint. The mixture is sealed and agitated at 37° C. in an incubator. Aliquots (1 mL) are removed at regular intervals and immediately quenched by the addition of 1 volume of acetonitrile. The resulting samples are analyzed by LC/MS to determine degradation rates.

The text below walks through data of patent publication US20230293458A1, “MULTIBIOTIC AGENTS AND METHODS OF USING THE SAME” (Flagship Pioneering Innovations V, Inc., priority 2017, published 2023).

The structures appear in SMILES notation.

Regarding `CCCC(=O)OC[C@@H](OC(=O)CCC)[C@H]1OC[C@H](OC(=O)CCC)[C@H]1OC(=O)CCC` [Example 87, [(2R)-2-butanoyloxy-2-[(2R,3R,4S)-3,4-di (butanoyloxy)tetrahydrofuran-2-yl]ethyl] butanoate], in series [1], the “Assay 2 (SGF) (% Remaining @ 4 hours)” value is recorded as “C (>75% of the tested compound remaining)”. Also, the “Assay 3 (SIF) (% @ Remaining 4 hours)” value in series [2] is reported as “C (>75% of the tested compound remaining)”.
Consider `CC(=O)O[C@H]1CO[C@H]2[C@@H]1OC[C@H]2OC(C)=O` [Example 88, [(3S,3aR,6R,6aR)-6-acetoxy-2,3,3a,5,6,6a-hexahydrofuro[3,2-b]furan-3-yl] acetate], for which the “Assay 2 (SGF) (% Remaining @ 4 hours)” value in series [1] was “C (>75% of the tested compound remaining)”. For the same compound, the “Assay 3 (SIF) (% @ Remaining 4 hours)” value in series [2] is recorded as “C (>75% of the tested compound remaining)”.
For the compound `CC(=O)OCCCNC(=O)[C@H](OC(C)=O)C(C)(C)COC(C)=O` [Example 89, 3-[[(2R)-2,4-diacetoxy-3,3-dimethyl-butanoyl]amino]propyl acetate], the “Assay 2 (SGF) (% Remaining @ 4 hours)” value in series [1] was “C (>75% of the tested compound remaining)”. In series [2], the “Assay 3 (SIF) (% @ Remaining 4 hours)” value is on record as “C (>75% of the tested compound remaining)”.
With `CCCC(=O)OCCCNC(=O)[C@H](OC(=O)CCC)C(C)(C)COC(=O)CCC` [Example 90, 3-[[(2R)-2,4-di(butanoyloxy)-3,3-dimethyl-butanoyl]amino] propyl butanoate], the “Assay 2 (SGF) (% Remaining @ 4 hours)” value in series [1] is “C (>75% of the tested compound remaining)”. For the same compound, in series [2], the “Assay 3 (SIF) (% @ Remaining 4 hours)” value is “A (<25% of the tested compound remaining)”.
Taken in the same sequence, the figures for `CCCC(=O)O[C@H](C)CC(=O)OCCCNC(=O)[C@H](OC(=O)C[C@@H](C)OC(=O)CCC)C(C)(C)COC(=O)C[C@@H](C)OC(=O)CCC` [Example 91, 3-[[(2R)-2,4-bis[[(3R)-3-butanoyloxybutanoyl]oxy]-3,3-dimethyl-butanoyl]amino]propyl (3R)-3-butanoyloxybutanoate] were “C (>75% of the tested compound remaining)” and “A (<25% of the tested compound remaining)”.
Taken in the same sequence, the figures for `CC(C)(COC(=O)Cc1c[nH]c2ccccc12)[C@@H](OC(=O)Cc1c[nH]c2ccccc12)C(=O)NCCCOC(=O)Cc1c[nH]c2ccccc12` [Example 92, 3-[[(2R)-2,4-bis[[2-(1H-indol-3-yl)acetyl]oxy]-3,3-dimethyl-butanoyl]amino]propyl 2-(1H-indol-3-yl)acetate] were “C (>75% of the tested compound remaining)” and “C (>75% of the tested compound remaining)”.
Taken in the same sequence, the figures for `CC(=O)OCC(C)(C)[C@@H](OC(C)=O)C(=O)NCCC(N)=O` [Example 94, [(3R)-3-acetoxy-4-[(3-amino-3-oxo-propyl)amino]-2,2-dimethyl-4-oxo-butyl] acetate] were “C (>75% of the tested compound remaining)” and “C (>75% of the tested compound remaining)”.
With `CCCC(=O)OCC(C)(C)[C@@H](OC(=O)CCC)C(=O)NCCC(N)=O` [Example 95, [(3R)-4-[(3-amino-3-oxo-propyl)amino]-3-butanoyloxy-2,2-dimethyl-4-oxo-butyl] butanoate], the “Assay 2 (SGF) (% Remaining @ 4 hours)” value in series [1] is “C (>75% of the tested compound remaining)”. The “Assay 3 (SIF) (% @ Remaining 4 hours)” value in series [2] was “C (>75% of the tested compound remaining)”.
On to `CCCC(=O)O[C@H](C)CC(=O)OCC(C)(C)[C@@H](OC(=O)C[C@@H](C)OC(=O)CCC)C(=O)NCCC(N)=O` [Example 96, [(3R)-4-[(3-amino-3-oxo-propyl)amino]-3-[(3R)-3-butanoyloxybutanoyl]oxy-2,2-dimethyl-4-oxo-butyl] (3R)-3-butanoyloxybutanoate], for which the “Assay 2 (SGF) (% Remaining @ 4 hours)” value in series [1] was “C (>75% of the tested compound remaining)”. In addition, the “Assay 3 (SIF) (% @ Remaining 4 hours)” value in series [2] was “C (>75% of the tested compound remaining)”.
For `CC(C)(COC(=O)Cc1c[nH]c2ccccc12)[C@@H](OC(=O)Cc1c[nH]c2ccccc12)C(=O)NCCC(N)=O` [Example 97, [(3R)-4-[(3-amino-3-oxo-propyl)amino]-3-[2-(1H-indol-3-yl)acetyl]oxy-2,2-dimethyl-4-oxo-butyl] 2-(1H-indol-3-yl)acetate], the “Assay 2 (SGF) (% Remaining @ 4 hours)” value in series [1] is “C (>75% of the tested compound remaining)”. For the same compound, the “Assay 3 (SIF) (% @ Remaining 4 hours)” value in series [2] is “C (>75% of the tested compound remaining)”.
For the compound `CC(C)(COC(=O)CCc1c[nH]c2ccccc12)[C@@H](OC(=O)CCc1c[nH]c2ccccc12)C(=O)NCCC(N)=O` [Example 98, [(3R)-4-[(3-amino-3-oxo-propyl)amino]-3-[3-(1H-indol-3-yl)propanoyloxy]-2,2-dimethyl-4-oxo-butyl] 3-(1H-indol-3-yl)propanoate], in series [1], the “Assay 2 (SGF) (% Remaining @ 4 hours)” value was “C (>75% of the tested compound remaining)”. Also, the “Assay 3 (SIF) (% @ Remaining 4 hours)” value in series [2] is “A (<25% of the tested compound remaining)”.
Taken in the same sequence, the figures for `CC(=O)OCc1cnc(C)c(OC(C)=O)c1COC(C)=O` [Example 99, [5-acetoxy-4-(acetoxymethyl)-6-methyl-3-pyridyl] methyl acetate] were “C (>75% of the tested compound remaining)” and “C (>75% of the tested compound remaining)”.
As to `CCCC(=O)OCc1cnc(C)c(OC(=O)CCC)c1COC(=O)CCC` [Example 100, [5-butanoyloxy-4-(butanoyloxymethyl)-6-methyl-3-pyridyl]methyl butanoate], the “Assay 2 (SGF) (% Remaining @ 4 hours)” value in series [1] is “C (>75% of the tested compound remaining)”. Also, the “Assay 3 (SIF) (% @ Remaining 4 hours)” value in series [2] is given as “C (>75% of the tested compound remaining)”.
For the compound `CCCC(=O)O[C@H](C)CC(=O)OCc1cnc(C)c(OC(=O)C[C@@H](C)OC(=O)CCC)c1COC(=O)C[C@@H](C)OC(=O)CCC` [Example 101, [5-[(3R)-3-butanoyloxybutanoyl]oxy-4-[[(3R)-3-butanoyloxybutanoyl]oxymethyl]-6-methyl-3-pyridyl]methyl (3R)-3-butanoyloxybutanoate], the “Assay 2 (SGF) (% Remaining @ 4 hours)” value in series [1] is reported as “C (>75% of the tested compound remaining)”. Besides, the “Assay 3 (SIF) (% @ Remaining 4 hours)” value in series [2] is given as “C (>75% of the tested compound remaining)”.
Regarding `Cc1ncc(COC(=O)Cc2c[nH]c3ccccc23)c(COC(=O)Cc2c[nH]c3ccccc23)c1OC(=O)Cc1c[nH]c2ccccc12` [Example 102, [5-[2-(1H-indol-3-yl)acetyl]oxy-4-[[2-(1H-indol-3-yl)acetyl]oxymethyl]-6-methyl-3-pyridyl]methyl 2-(1H-indol-3-yl)acetate], the “Assay 2 (SGF) (% Remaining @ 4 hours)” value in series [1] is “C (>75% of the tested compound remaining)”. In addition, the “Assay 3 (SIF) (% @ Remaining 4 hours)” value in series [2] was “B (25-75% of the tested compound remaining)”.
For `Cc1ncc(COC(=O)CCc2c[nH]c3ccccc23)c(COC(=O)CCc2c[nH]c3ccccc23)c1OC(=O)CCc1c[nH]c2ccccc12` [Example 103, [5-[3-(1H-indol-3-yl)propanoyloxy]-4-[3-(1H-indol-3-yl)propanoyloxymethyl]-6-methyl-3-pyridyl]methyl3-(1H-indol-3-yl)propanoate], in that order: “C (>75% of the tested compound remaining)” and “A (<25% of the tested compound remaining)”.
For `O=C(Cc1c[nH]c2ccccc12)OC[C@@H](O)[C@H](COC(=O)Cc1c[nH]c2ccccc12)OC(=O)Cc1c[nH]c2ccccc12` [Example 104, [(2R,3S)-2-hydroxy-3,4-bis[[2-(1H-indol-3-yl)acetyl]oxy]butyl] 2-(1H-indol-3-yl)acetate], in that order: “C (>75% of the tested compound remaining)” and “B (25-75% of the tested compound remaining)”.
Take `O=C(Cc1c[nH]c2ccccc12)OC[C@H](OC(=O)Cc1c[nH]c2ccccc12)[C@@H](COC(=O)Cc1c[nH]c2ccccc12)OC(=O)Cc1c[nH]c2ccccc12` [Example 105, [(2R,3S)-2,3,4-tris[[2-(1H-indol-3-yl)acetyl]oxy]butyl] 2-(1H-indol-3-yl)acetate]: the “Assay 2 (SGF) (% Remaining @ 4 hours)” value in series [1] is reported as “C (>75% of the tested compound remaining)”. Besides, in series [2], the “Assay 3 (SIF) (% @ Remaining 4 hours)” value is “B (25-75% of the tested compound remaining)”.
